“And” between values parts separate entries of the source, which are not always exact repeats. Identical values can stand only once. Values belong to the compound of their own block, whether it stands above or below them.
Columns and labels:
[1] = Raman microscopy to assess drug binding to poly(methylhydrosiloxane); format: physicochemical; conditions: Raman microscopy (FIG. 12)
Description: FIG. 12 depicts Raman microscopy studies to assess drug binding to poly(methylhydrosiloxane). LNG: levonorgestrel, DAP: dapivirine, PRG: progesterone, EE: Ethynyl estradiol.
To determine the binding site of compounds to the silicone polymer, Raman spectroscopy studies were undertaken. In the first study, scanning Raman microscopy was used as a method for mapping drug distribution in silicone elastomer films. Thin films were created using NuSil DDU-4320 silicone elastomer and either dapivirine, micronized levonorgestrel, or non-micronized levonorgestrel. 400 points were sampled. In the second study, Raman microscopy was used as a tool to assess binding to poly(methylhydrosiloxane).

[2] = Recovery from NuSil DDU-4320 platinum-catalyzed silicone slabs or rings; format: physicochemical; conditions: DDU-4320 slab
Method: (§1) Methods for assaying the percent of compound having a terminal alkene, alkyne or carbonyl group recoverable from or covalently bound to a platinum-catalyzed silicone intravaginal drug delivery device of the invention are commonly known in the art. For example, silicone intravaginal rings, slabs or IUDs can be added to a glass flask. 5 mL of a 2.5 mg/mL norethindrone solution (NOR; present as an internal standard) in methanol can be added to the flask along with 95 mL of dichlormethane (DCM). The flask can be placed in a rotating orbital incubator set at 37° C. and 60 rpm for 72 hours. A 2 mL aliquot of the cooled extraction mixture can be transferred to a glass centrifuge tube and allowed to evaporate to dryness. The dried samples can be reconstituted in 10 mL of methanol with vortex mixing for 30 seconds and sonication for 40 minutes. A 1:10 dilution of this solution can be prepared using methanol and water such that the final solvent composition is 1:1. This solution and be analyzed by HPLC. Recovery can be expressed as a percentage of predicted compound as compared to the original amount of compound present in the silicone intravaginal ring, slab or IUD. The final data can be corrected based on the recovery of a control solution of known compound concentration that was “extracted” at the same time.
The influence of silicone polymer system cure time, and cure temperature on levonorgestrel was also investigated. With the understanding that the NuSil DDU-4320 could be cured at a lower temperature than NuSil MED-4870, process optimization proceeded with NuSil DDU-4320.
For example, at a cure temperature and time of 100° C. for 7 minutes, approximately 87% of the LNG added was recovered using non-micronized LNG, compared with only 12% for micronized LNG. LNG recovery decreased with increasing cure temperature and cure time for both the micronized and non-micronized LNG. For example, the recovery of micronized LNG falls from 35% to zero as the cure time at 100° C. is increased from 1.5 minutes to 30 minutes. Similarly, the recovery of non-micronized LNG falls from approximately 87% to 59% as the cure temperature is increased from 60° C. to 160° C. at a cure time of 7 minutes.
In an effort to define the maximum possible recovery of contraceptive using the best possible conditions for manufacture, further silicone slabs were prepared with non-micronized LNG. In this case, a low temperature manufacture at 60° C. with a cure time of 6 minutes was compared to a shorter higher temperature cure of 100° C. for 1.5 minutes. In addition, to define precisely the recovery of LNG expected from a ring compared to a slab, intravaginal rings were also prepared under the above conditions. […]

[3] = In vitro release from addition-cured (Pt) LSR9-9508-30 matrix vaginal rings; format: physicochemical; conditions: for Total release, % of initial drug loading / Time after which release ceased: LSR9-9508-30 matrix rings, 21-day study; for Total release, % of initial drug loading: non-micronized LNG, micronized EE, micronized ET; for Release mechanism: LSR9-9508-30 rings, duration of the 21-day study
Description: (§2) Formulations of dapivirine (DAP or DPV) with a contraceptive hormone were investigated for use with a multipurpose prevention technology (MPT) intravaginal ring system. Dapivirine and non-micronized levonorgestrel (LNG), micronized ethinyl estradiol (EE), or micronized etonogestrel (ET) were studied in condensation cured (Sn) or addition cured (Pt) silicone systems. Matrix-type vaginal rings were manufactured by injection moulding, using either MEDS-6382 (condensation-cured) or LSR9-9508-30 (addition-cured) silicone elastomers. Release of DAP and LNG from the LSR9-9508-30 rings was diffusion-controlled for the duration of the 21-day study. Total DAP release was 41% of the initial loading, while only 29% LNG loading was released. Both drugs would have continued to be released beyond 21 days had the study had continued. However, release of EE and ET ceased after 13 and 8 days respectively, with only 36 and 23% of initial drug loading released.

[4] = Recovery from NuSil MED-4870 platinum-catalyzed silicone slabs; format: physicochemical; conditions: for % LNG Recoverable: MED-4870 slab
Method: as §1
Higher cure temperatures were required for the NuSil MED-4870 system to ensure sufficient curing to allow for slab removal from the molds. […]

[5] = In vitro release from platinum-catalyzed silicone matrix rings (200 mg dapivirine, 32 mg levonorgestrel), storage stability study; format: physicochemical; conditions: for Release at week-two time point: rings with micronized levonorgestrel and micronized dapivirine, stored two weeks
Method: Platinum-catalyzed silicone matrix intravaginal rings comprising 200 mg micronized dapivirine and 32 mg levonorgestrel (both micronized and non-micronized) were utilized in this study. FIGS. 1 and 2 depict the mean and cumulative daily release of dapivirine and levonorgestrel versus time for micronized levonorgestrel and micronized dapivirine on storage stability. […] For the non-micronized levonorgestrel rings, there was less than 100% recovery of the amount of levonorgestrel added in two of the rings tested for content after initial release rate testing. […] All of the levonorgestrel release rate results obtained in this study are likely to have been influenced by this phenomenon.

[6] = In vitro release from condensation-cured (Sn) MEDS-6382 matrix vaginal rings; format: physicochemical
Description: as §2

wild-type HIV-1 strains = conditions: cited from earlier work
[7] = tested on: HIV-1 strains harboring different resistance-inducing mutations; conditions: cited from earlier work
Solubility in water = format: physicochemical

Structure (SMILES): C#C[C@]1(O)CC[C@H]2[C@@H]3CCc4cc(O)ccc4[C@H]3CC[C@@]21C [EE, Ethynyl Estradiol]
- Total release, MEDS-6382 compared with LSR9-9508-30 [6]: greater from MEDS-6382 than LSR9-9508-30
- Covalent binding to the silicone polymer [1]: covalently bind
- Time after which release ceased [3]: 13 days
- Total release, % of initial drug loading [3]: 36%

Structure (SMILES): Cc1cc(C)c(Nc2ccnc(Nc3ccc(C#N)cc3)n2)c(C)c1 [DAP, 4-[[4-[(2,4,6-trimethylphenyl)amino]-2-pyrimidinyl]amino]benzonitrile]
- Covalent binding to the silicone polymer [1]: do not covalently bind
- Activity against wild-type HIV-1 strains (wild-type HIV-1 strains): potent activity
- Total release, % of initial drug loading [3]: 41%
- Release mechanism [3]: diffusion-controlled
- Activity against HIV-1 strains harboring resistance-inducing mutations [7]: potent activity
- Solubility in water (Solubility in water): virtually insoluble in water
- solubility (Solubility in water; water): < 1 µg/mL
- Release at week-two time point [5]: reasonable dapivirine release

Structure (SMILES): C#C[C@]1(O)CC[C@H]2[C@@H]3CCC4=CC(=O)CC[C@@H]4[C@H]3C(=C)C[C@@]21CC [ET, etonogestrel]
- Total release, MEDS-6382 compared with LSR9-9508-30 [6]: greater from MEDS-6382 than LSR9-9508-30
- Time after which release ceased [3]: 8 days
- Total release, % of initial drug loading [3]: 23%

Now from value to compound:

- Covalent binding to the silicone polymer [1]: covalently bind
- % LNG Recoverable ([2]; micronized, 60° C., 7 min): 75%
- % LNG Recoverable ([2]; micronized, 80° C., 7 min): 50%
- % LNG Recoverable ([2]; micronized, 100° C., 1.5 min): 35% and 37%
- % LNG Recoverable ([2]; micronized, 100° C., 3 min): 25%
- % LNG Recoverable ([2]; micronized, 100° C., 7 min): 10% and 18%
- % LNG Recoverable ([2]; micronized, 100° C., 15 min): 2%
- % LNG Recoverable ([2]; micronized, 100° C., 120 min): 0%
- % LNG Recoverable ([2]; micronized, 120° C., 7 min): 0%
- % LNG Recoverable ([2]; micronized, 140° C., 7 min): 0%
- % LNG Recoverable ([2]; micronized, 160° C., 7 min): 0%
- % LNG Recoverable ([2]; non-micronized, 80° C., 7 min): 83%
- % LNG Recoverable ([2]; non-micronized, 100° C., 3 min): 82%
- % LNG Recoverable ([2]; non-micronized, 100° C., 15 min): 85%
- % LNG Recoverable ([2]; non-micronized, 100° C., 30 min): 80%
- % LNG Recoverable ([2]; non-micronized, 100° C., 120 min): 75%
- % LNG Recoverable ([2]; non-micronized, 120° C., 7 min): 83%
- % LNG Recoverable ([2]; non-micronized, 140° C., 7 min): 82% and 80%
- % LNG Recoverable ([2]; non-micronized, 160° C., 7 min): 58%
- % LNG Recoverable ([2]; non-micronized, 160° C., 7 min, listed as levonorgestrel): 59%
- Total release, % of initial drug loading [3]: 29%
- Release mechanism [3]: diffusion-controlled
- Levonorgestrel content of slab ([4]; NuSil MED-4870 slab heated at 160° C. for 5 minutes): 47%
- % LNG Recoverable ([4]; micronized, 120° C., 10 min): 0%
- % LNG Recoverable ([4]; micronized, 140° C., 10 min): 0%
- % LNG Recoverable ([4]; micronized, 160° C., 1.5 min): 0%
- % LNG Recoverable ([4]; micronized, 160° C., 7 min): 0%
- % LNG Recoverable ([4]; micronized, 160° C., 10 min): 0%
- % LNG Recoverable ([4]; micronized, 160° C., 15 min): 0%
- % LNG Recoverable ([4]; micronized, 160° C., 20 min): 0%
- % LNG Recoverable ([4]; micronized, 160° C., 30 min): 0%
- % LNG Recoverable ([4]; micronized, 160° C., 120 min): 0%
- % LNG Recoverable ([4]; micronized, 180° C., 10 min): 0%
- % LNG Recoverable ([4]; micronized, 200° C., 10 min): 0%
- % LNG Recoverable ([4]; non-micronized, 120° C., 10 min): 65%
- % LNG Recoverable ([4]; non-micronized, 140° C., 10 min): 55%
- % LNG Recoverable ([4]; non-micronized, 160° C., 1.5 min): 65%
- % LNG Recoverable ([4]; non-micronized, 160° C., 7 min): 47%
- % LNG Recoverable ([4]; non-micronized, 160° C., 10 min): 60%
- % LNG Recoverable ([4]; non-micronized, 160° C., 15 min): 33%
- % LNG Recoverable ([4]; non-micronized, 160° C., 20 min): 28%
- % LNG Recoverable ([4]; non-micronized, 160° C., 30 min): 10%
- % LNG Recoverable ([4]; non-micronized, 160° C., 120 min): 0%
- % LNG Recoverable ([4]; non-micronized, 180° C., 10 min): 8%
- % LNG Recoverable ([4]; non-micronized, 200° C., 10 min): 0%
- Release from platinum catalyzed silicone rings, non-micronized compared to micronized ([5]; non-micronized levonorgestrel): increased release
- Release of levonorgestrel detected initially (T0) ([5]; rings with micronized levonorgestrel): negligible release
- Release at week-two time point [5]: lack of levonorgestrel release
Structure (SMILES): C#C[C@]1(O)CC[C@H]2[C@@H]3CCC4=CC(=O)CC[C@@H]4[C@H]3CC[C@@]21CC [LNG, 13-ethyl-17-ethynyl-17-hydroxy-1,2,6,7,8,9,10,11,12,13,14,15,16,17-tetrad-ecahydrocyclopenta[a]phenanthren-3-one]

- Covalent binding to the silicone polymer [1]: covalently bind
Structure (SMILES): CC(=O)[C@H]1CC[C@H]2[C@@H]3CCC4=CC(=O)CC[C@]4(C)[C@H]3CC[C@]12C [PRG, Progesterone]

From patent US20170224823A1, “PLATINUM-CATALYZED SILICONE DRUG DELIVERY DEVICES AND METHODS OF USE THEREOF” (priority 2014, published 2017)
